Data published in ChEMBL document CHEMBL4715758, “Hit-to-Lead Optimization of a Novel Class of Potent, Broad-Spectrum Trypanosomacides” (J Med Chem, 2016).
≈ marks a conversion by molar mass, not a printed value. Values belong to the molecule of their own block, whether it stands above or below them. Calls of active or inactive are those of the source. The calls are words filed in the database; no cut-off is given here.

Experiments:
[1] = test system: L6; assay: Cytotoxicity against rat L6 cells assessed as reduction in cell viability measured after 72 hrs by alamar blue dye based fluorimetry analysis; conditions: L6, 72 h
[2] = test system: Leishmania donovani; assay: Antileishmanial activity against Leishmania donovani MHOM/ET/67/L82 amastigotes measured after 72 hrs by alamar blue dye based fluorimetry analysis; type: functional, organism-based; conditions: MHOM/ET/67/L82, 72 h
[3] = test system: Plasmodium falciparum; assay: Antiplasmodial activity against chloroquine and pyrimethamine resistant erythrocytic stage of Plasmodium falciparum K1 strain assessed as reduction in [3H]hypoxanthine incorporation measured after 48 hrs by liquid scintillation counting method; type: functional, organism-based
[4] = test system: Trypanosoma brucei rhodesiense; assay: Antitrypanosomal activity against Trypanosoma brucei rhodesiense STIB900 trypomastigotes incubated for 72 hrs by resazurin dye based fluorescence assay; type: functional, organism-based; conditions: STIB900, 72 h
[5] = test system: Trypanosoma cruzi; assay: Antitrypanosomal activity against Trypanosoma cruzi Tulahuen C4 strain amastigotes infected in rat L6 cells measured after 96 hrs by inverted microscopy analysis; type: functional, organism-based; conditions: Tulahuen C4, L6, 96 h
[6] = Selectivity index, ratio of IC50 for cytotoxicity against human HEK293 cells assessed as reduction in cell viability to IC50 for antitrypanosomal activity against Trypanosoma brucei brucei Lister 427 blood stream form; type: toxicity, cell-based; conditions: read-out: Ratio IC50
[7] = test system: Trypanosoma brucei brucei; assay: Antitrypanosomal activity against Trypanosoma brucei brucei Lister 427 strain blood stream forms incubated for 48 hrs by resazurin dye based fluorescence assay; type: functional, organism-based; conditions: Lister 427, 48 h
[8] = Kinetic solubility of compound at pH 6.5 phosphate buffer by nephelometry; type: physicochemical; conditions: read-out: Kinetic_solubility
[9] = Protein binding in human plasma by HPLC-MS analysis; type: ADME, cell-free; conditions: read-out: PPB (converted)
[10] = test system: Vero; assay: Cytotoxicity against African green monkey Vero cells assessed as reduction in cell viability; type: cell-based; conditions: chlorocebus sabaeus
[11] = Kinetic solubility of compound at pH 2 by nephelometry; type: physicochemical; conditions: buffer, read-out: Kinetic_solubility
[12] = Partition coefficient, log D of compound at pH 7.4 by HPLC; type: physicochemical; conditions: octanol/water
[13] = test system: Trypanosoma cruzi; assay: Antitrypanosomal activity against Trypanosoma cruzi infected in vero cells assessed as reduction in parasite growth inhibition incubated for 96 hrs by time kill assay relative to nifurtimox; type: functional
[14] = test system: Trypanosoma cruzi; assay: Inhibition of Trypanosoma cruzi Tulahuen C4 CYP51 expressed in Escherichia coli JM109 using BOMCC as substrate in presence of NADPH by fluorescence assay
[15] = test system: Trypanosoma cruzi; assay: Antitrypanosomal activity against Trypanosoma cruzi infected in vero cells assessed as minimum concentration required for parasite growth inhibition incubated from 24 to 96 hrs by time kill assay; type: functional; conditions: time 24-96 hrs, read-out: MEC
[16] = test system: Trypanosoma cruzi; assay: Antitrypanosomal activity against Trypanosoma cruzi infected in vero cells assessed as parasite growth inhibition incubated from 24 to 96 hrs by time kill assay; type: functional, organism-based
[17] = Metabolic stability in mouse liver microsomes assessed as degradation half-life measured after 60 mins in presence of NADPH generating system by LC-MS analysis; type: ADME, Microsome; conditions: read-out: T50
[18] = Intrinsic clearance in mouse liver microsomes assessed per mg protein measured after 60 mins in presence of NADPH generating system by LC-MS analysis; type: ADME, Microsome; conditions: read-out: CLH
[19] = Intrinsic clearance in human liver microsomes assessed per mg protein measured after 60 mins in presence of NADPH generating system by LC-MS analysis; type: ADME, Microsome; conditions: read-out: CLH
[20] = Metabolic stability in human liver microsomes assessed as degradation half-life measured after 60 mins in presence of NADPH generating system by LC-MS analysis; type: ADME, Microsome; conditions: read-out: T50
[21] = Metabolic stability in human liver microsomes assessed as half-life measured after 60 mins in presence of NADPH generating system by LC-MS analysis; type: ADME, Microsome
[22] = test system: Trypanosoma cruzi; assay: Antitrypanosomal activity against Trypanosoma cruzi Tulahuen strain trypomastigotes infected in rat H9c2 cells incubated for 72 hrs by DRAQ5 DNA dye based imaging analysis; type: functional, organism-based; conditions: H9c2, 72 h
[23] = Selectivity index, ratio of IC50 for cytotoxicity against rat H9c2 cells assessed as reduction in cell viability to IC50 for antitrypanosomal against Trypanosoma cruzi Tulahuen trypomastigotes infected in rat H9c2 cells; type: toxicity, cell-based; conditions: read-out: Ratio IC50
[24] = Drug metabolism in human liver microsomes assessed as 2-(2-phenylthiazol-4-yl)-ethanol metabolite formation in presence of NADPH and UDPGA measured after 60 mins by LC-MS analysis; type: ADME, Microsome; conditions: 1 h
[25] = Drug metabolism in human liver microsomes assessed as hydroxylation by measuring 3-fluoro-N-(2-hydroxy-2-(2-phenylthiazol-4-yl)ethyl)benzamide formation in presence of NADPH measured after 60 mins by LC-MS analysis; type: ADME, Microsome; conditions: 1 h
[26] = Drug metabolism in human liver microsomes assessed as N-(2-(4-(2,4-difluorophenyl)thiazol-2-yl)ethyl)piperidine-1-carboxamide metabolite formation in presence of NADPH and UDPGA measured after 60 mins by LC-MS analysis; type: ADME, Microsome; conditions: 1 h
[27] = Drug metabolism in human liver microsomes assessed as oxidative dealkylation by measuring 2-(2-phenylthiazol-4-yl)-ethanol formation in presence of NADPH measured after 60 mins by LC-MS analysis; type: ADME, Microsome; conditions: 1 h
[28] = Drug metabolism in human liver microsomes assessed as hydroxylation by measuring 3-fluoro-N-(2-(2-(4-hydroxyphenyl)thiazol-4-yl)ethyl)benzamide formation in presence of NADPH measured after 60 mins by LC-MS analysis; type: ADME, Microsome; conditions: 1 h
[29] = Metabolic stability in human liver microsome assessed as compound degradation measured over 60 mins in absence of cofactor by LC-MS analysis; type: ADME; conditions: liver microsomes, read-out: Drug degradation
[30] = Drug metabolism in human liver microsomes assessed as secondary hydroxylation by measuring N-(2-(4-(2,4-difluorophenyl)thiazol-2-yl)ethyl)piperidine-1-carboxamide metabolite formation in presence of NADPH measured after 60 mins by LC-MS analysis; type: ADME, Microsome; conditions: 1 h

SMILES: O=C(NCCc1csc(-c2ccccc2)n1)c1ccccn1
- IC50 [1]: 66000 nM
- IC50 [2]: 12000 nM
- IC50 [3]: 65000 nM
- IC50 [4]: 220 nM
- IC50 [5]: 900 nM
- selectivity ratio [6]: 139
- IC50 [7]: 300 nM

SMILES: CC(C)(C)C(=O)NCCc1csc(-c2cccc(F)c2)n1
- IC50 [1]: 62000 nM
- IC50 [2]: 46000 nM
- IC50 [3]: 35000 nM
- IC50 [4]: 1500 nM
- IC50 [5]: 2300 nM

SMILES: O=C(NCCc1csc(-c2ccc(F)cc2F)n1)c1cc(F)ccc1F
- half-life [21]: 6 min
- IC50 [22]: 130 nM
- microsomal CLint [19]: 231 µL/min/mg
- selectivity ratio [23]: > 398

SMILES: O=C(NCCc1csc(-c2ccccc2)n1)c1cccc(F)c1
- Drug metabolism [24]: Metabolite_Detected
- Drug metabolism [25]: Metabolite_Detected
- fraction unbound [9]: 0.04
- IC50 [22]: 500 nM
- IC50 [1]: 51000 nM
- IC50 [2]: 10000 nM
- microsomal CLint [19]: 484 µL/min/mg
- IC50 [3]: 41000 nM
- Drug metabolism [26]: Metabolite_Detected
- Activity [10]: 17 µM
- half-life [20]: 4 min
- Drug metabolism [27]: Metabolite_Detected
- IC50 [5]: 200 nM
- Drug metabolism [28]: Metabolite_Detected
- solubility kinetic [11]: 6 µg/mL (≈ 18.4 µM)
- logD [12]: 3.6
- Imax [13]: 106%
- inhibition [14]: inactive
- metabolised at 1 h [29]: 14%
- Drug metabolism [30]: Metabolite_Detected
- IC50 [16]: 400 nM

More lines, main results first:

- solubility kinetic [8]: 6 µg/mL (≈ 19.2 µM)
- fraction unbound [9]: 0.05
- solubility kinetic [11]: 6 µg/mL (≈ 19.2 µM)
- logD [12]: 3.5
- inhibition [14]: inactive
- IC50 [7]: 130 nM
SMILES: Cc1ccoc1C(=O)NCCc1csc(-c2ccccc2)n1
- Activity [10]: 50 µM
- selectivity ratio [6]: 666
- Imax [13]: 104%
- minimal effective concentration [15]: 0.6 µM
- IC50 [16]: 600 nM

- half-life [17]: < 2 min
- microsomal CLint [18]: > 1600 µL/min/mg
- microsomal CLint [19]: 445 µL/min/mg
- half-life [20]: 4 min
- IC50 [7]: 26 nM
SMILES: O=C(NCCc1csc(-c2cccc(F)c2)n1)N1CCCCC1
- selectivity ratio [6]: 398

- half-life [21]: 10 min
- IC50 [22]: 130 nM
- microsomal CLint [19]: 135 µL/min/mg
SMILES: CC(C)OC(=O)NCCc1csc(-c2ccc(F)cc2F)n1
- selectivity ratio [23]: > 398
